{"source": "ChEMBL document CHEMBL1201862", "about": "“PubChem BioAssay data set” (2004)", "key": {"[1]": {"assay": "growth suppression of PTEN-null colon cells, dose response, cell-based, HCT116 PTEN knockout (AID 1047);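 also: HCT116 colon tumor cells with PTEN knocked out; cells exposed to compound for 60 hours before readout; potency for loss of cell viability measured by luminescence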", "assay_type": "functional"}, "[2]": {"assay": "growth suppression of beta-catenin-knockout colon cells, dose response, cell-based, HCT116, human colon tumor (AID 1045);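 also: HCT116 colon tumor cells with beta catenin knocked out; cells exposed to compound for 60 hours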", "assay_type": "functional"}, "[3]": {"assay": "inhibitors of firefly luciferase expression or activity, dose response, H4 neuroglioma cells, luminescence (AID 1990)", "assay_type": "functional, cell-based"}, "[4]": {"assay": "Luminescence Cell-Based Dose Response HTS to Identify Inhibitors of 5'UTR Stem-Loop Driven Prion Protein mRNA Translation in H4 Neuroglioblastoma Cells. [Related pubchem assays: 1827 (Project Summary), 1813 (Primary HTS)]", "assay_type": "functional"}, "[5]": {"assay": "inhibitors of SNCA 5'UTR-driven reporter translation, confirmation, H4 neuroglioma cells, luminescence (AID 1988)", "assay_type": "functional, cell-based"}, "[6]": {"assay": "cells", "assay_type": "functional"}, "[7]": {"biological_target": "Cytochrome P450 2C9 (Homo sapiens, UniProt P11712)", "sequence (P11712 whole entry)": "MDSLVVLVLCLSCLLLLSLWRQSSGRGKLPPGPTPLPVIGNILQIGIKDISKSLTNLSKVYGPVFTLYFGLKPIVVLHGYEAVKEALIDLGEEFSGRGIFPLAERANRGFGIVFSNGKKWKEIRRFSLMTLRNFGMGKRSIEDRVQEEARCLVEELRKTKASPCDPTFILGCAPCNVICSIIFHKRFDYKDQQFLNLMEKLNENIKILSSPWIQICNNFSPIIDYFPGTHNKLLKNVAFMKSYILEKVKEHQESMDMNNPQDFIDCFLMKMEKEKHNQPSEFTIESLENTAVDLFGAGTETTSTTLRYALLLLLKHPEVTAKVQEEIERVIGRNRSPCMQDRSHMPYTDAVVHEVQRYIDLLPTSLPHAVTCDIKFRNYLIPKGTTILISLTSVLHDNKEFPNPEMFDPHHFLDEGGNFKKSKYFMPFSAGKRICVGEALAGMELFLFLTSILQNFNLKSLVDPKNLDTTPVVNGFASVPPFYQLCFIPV"}, "[8]": {"assay": "cytotoxicity toward DRD oncogenic fibroblasts, dose response, cell-based, non-viral oncogenic, luminescence (AID 1934)", "assay_type": "functional", "settings": "Homo sapiens"}, "[9]": {"assay": "control 3'UTR Renilla luciferase suppression, dose response, counter-screen for Shn3 inhibitor project, cell-based, Clone20-Shn3RL, cherry-picked (AID 624133)", "assay_type": "functional"}, "[10]": {"system": "BJ", "assay": "cells", "assay_type": "functional, cell-based", "settings": "Homo sapiens"}, "[11]": {"system": "BJ", "assay": "cytotoxicity toward BJ-TERT-LT-ST fibroblasts, dose response, cell-based, RAS-independent, luminescence (AID 1935);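 also: BJ fibroblasts immortalized with TERT plus LT and ST oncogenes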", "assay_type": "functional", "settings": "Homo sapiens"}, "[12]": {"assay": "Shn3 3'UTR reporter inhibitors, dose response, cell-based, Clone20 osteoblasts, firefly luciferase, cherry-picked (AID 624132)", "assay_type": "functional"}, "[13]": {"biological_target": "T1, Ubiquitin-conjugating enzyme E2 N (Homo sapiens, UniProt P61088)", "T1 sequence (P61088 whole entry)": "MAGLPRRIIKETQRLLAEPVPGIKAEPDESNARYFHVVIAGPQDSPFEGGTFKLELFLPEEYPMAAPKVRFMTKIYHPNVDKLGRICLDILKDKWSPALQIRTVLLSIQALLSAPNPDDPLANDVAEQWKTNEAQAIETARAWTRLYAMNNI", "assay_type": "functional"}, "[14]": {"system": "BJ", "assay": "cytotoxicity toward BJ-TERT fibroblasts, dose response, cell-based, RAS-independent, luminescence (AID 1933)", "assay_type": "functional", "settings": "Homo sapiens"}, "[15]": {"assay": "HepG2 cell cytotoxicity, dose response, cytotoxicity control for Shn3 inhibitor project, CellTiter-Glo, cherry-picked (AID 624134)", "assay_type": "functional, cell-based"}, "[16]": {"biological_target": "Cytochrome P450 3A4 (Homo sapiens, UniProt P08684)", "sequence (P08684 whole entry)": "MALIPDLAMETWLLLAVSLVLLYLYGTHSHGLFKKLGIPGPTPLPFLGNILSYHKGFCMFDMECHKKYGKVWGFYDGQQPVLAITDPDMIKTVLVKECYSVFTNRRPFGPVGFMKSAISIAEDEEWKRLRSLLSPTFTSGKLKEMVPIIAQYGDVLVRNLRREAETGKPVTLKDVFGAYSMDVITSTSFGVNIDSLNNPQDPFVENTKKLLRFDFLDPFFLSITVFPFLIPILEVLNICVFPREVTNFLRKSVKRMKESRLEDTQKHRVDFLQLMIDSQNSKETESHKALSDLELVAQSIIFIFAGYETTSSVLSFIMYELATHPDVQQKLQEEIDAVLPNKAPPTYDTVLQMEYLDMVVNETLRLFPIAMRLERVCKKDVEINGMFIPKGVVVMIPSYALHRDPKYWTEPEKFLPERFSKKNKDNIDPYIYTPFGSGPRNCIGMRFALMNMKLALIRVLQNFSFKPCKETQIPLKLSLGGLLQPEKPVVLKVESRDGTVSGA"}, "[17]": {"assay": "Luminescence Cell-Based Dose Retest to Confirm Inhibitors of Cancer Stem Cells. [Related pubchem assays (depositor defined):AID2717, AID2721]", "assay_type": "functional", "settings": "Homo sapiens"}, "[18]": {"assay": "HEp-2 cell cytotoxicity, dose response, cytotoxicity control for RSV inhibitor project, HTS (AID 2410)", "assay_type": "functional", "settings": "human respiratory syncytial virus"}, "[19]": {"biological_target": "Genome polyprotein (dengue virus type 2, UniProt P29990)", "sequence (P29990 2492-3391 limits assumed)": "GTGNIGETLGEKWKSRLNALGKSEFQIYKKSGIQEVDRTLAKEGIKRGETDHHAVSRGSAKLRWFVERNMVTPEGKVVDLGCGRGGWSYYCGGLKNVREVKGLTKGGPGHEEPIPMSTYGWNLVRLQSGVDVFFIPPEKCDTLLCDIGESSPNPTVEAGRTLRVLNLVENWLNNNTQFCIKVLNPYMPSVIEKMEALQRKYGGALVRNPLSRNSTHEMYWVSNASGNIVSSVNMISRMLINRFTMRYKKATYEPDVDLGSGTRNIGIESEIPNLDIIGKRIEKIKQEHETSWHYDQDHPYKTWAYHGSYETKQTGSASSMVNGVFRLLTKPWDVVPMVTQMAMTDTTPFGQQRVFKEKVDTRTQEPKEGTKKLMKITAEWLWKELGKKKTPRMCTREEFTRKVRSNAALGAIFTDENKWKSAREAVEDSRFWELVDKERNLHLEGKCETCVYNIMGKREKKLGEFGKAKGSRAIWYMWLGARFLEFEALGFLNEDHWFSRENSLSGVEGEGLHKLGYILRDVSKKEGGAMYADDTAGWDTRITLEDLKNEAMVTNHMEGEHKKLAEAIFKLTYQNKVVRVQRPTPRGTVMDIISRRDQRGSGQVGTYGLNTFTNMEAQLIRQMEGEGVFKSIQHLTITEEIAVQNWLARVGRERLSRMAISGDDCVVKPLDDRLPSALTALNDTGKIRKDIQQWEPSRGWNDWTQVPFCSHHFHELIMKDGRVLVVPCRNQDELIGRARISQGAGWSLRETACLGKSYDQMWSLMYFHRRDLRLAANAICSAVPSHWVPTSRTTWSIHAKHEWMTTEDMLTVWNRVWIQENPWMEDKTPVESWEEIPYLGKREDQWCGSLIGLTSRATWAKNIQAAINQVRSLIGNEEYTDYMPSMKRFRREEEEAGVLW", "assay": "Dengue-2 NS5 methyltransferase inhibitors, primary screen, biochemical, confirmation dose response (AID 588689)", "assay_type": "functional"}, "[20]": {"biological_target": "T2, Aminopeptidase N (Plasmodium falciparum FcB1/Columbia, UniProt O96935)", "T2 sequence (O96935 whole entry)": "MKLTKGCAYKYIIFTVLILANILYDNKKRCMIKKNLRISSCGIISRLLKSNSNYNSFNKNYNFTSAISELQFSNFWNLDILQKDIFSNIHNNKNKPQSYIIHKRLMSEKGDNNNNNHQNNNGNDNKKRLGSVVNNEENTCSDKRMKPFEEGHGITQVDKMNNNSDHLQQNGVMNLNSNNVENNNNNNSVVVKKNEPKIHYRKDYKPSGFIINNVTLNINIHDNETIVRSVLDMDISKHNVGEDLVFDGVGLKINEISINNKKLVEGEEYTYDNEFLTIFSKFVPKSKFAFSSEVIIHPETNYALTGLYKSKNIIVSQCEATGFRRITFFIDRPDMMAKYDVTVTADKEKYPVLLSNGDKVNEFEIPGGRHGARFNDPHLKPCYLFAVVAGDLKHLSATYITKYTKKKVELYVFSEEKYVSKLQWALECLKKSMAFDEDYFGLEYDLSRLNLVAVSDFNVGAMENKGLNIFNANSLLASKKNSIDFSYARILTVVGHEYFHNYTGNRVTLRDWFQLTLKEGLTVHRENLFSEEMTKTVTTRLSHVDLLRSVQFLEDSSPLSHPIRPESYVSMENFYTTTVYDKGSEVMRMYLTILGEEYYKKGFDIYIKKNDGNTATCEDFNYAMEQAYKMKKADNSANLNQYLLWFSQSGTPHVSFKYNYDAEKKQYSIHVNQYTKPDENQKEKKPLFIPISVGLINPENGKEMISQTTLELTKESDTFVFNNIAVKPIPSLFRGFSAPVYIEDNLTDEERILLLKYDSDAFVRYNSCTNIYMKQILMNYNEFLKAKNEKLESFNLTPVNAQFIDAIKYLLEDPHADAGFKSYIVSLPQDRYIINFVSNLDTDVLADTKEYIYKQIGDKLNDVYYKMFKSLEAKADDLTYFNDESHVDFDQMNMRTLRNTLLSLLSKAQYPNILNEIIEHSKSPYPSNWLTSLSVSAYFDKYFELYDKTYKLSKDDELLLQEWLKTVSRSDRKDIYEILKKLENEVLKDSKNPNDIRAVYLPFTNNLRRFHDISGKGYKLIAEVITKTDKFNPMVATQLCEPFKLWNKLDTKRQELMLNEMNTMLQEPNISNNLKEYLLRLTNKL", "assay": "P. falciparum M1AAP inhibitors, biochemical, fluorogenic H-Leu-NHMec substrate, 1536-well (AID 1445)", "set-up": "species or system Plasmodium falciparum 3D7, 3D7"}, "[21]": {"biological_target": "Cytochrome P450 2D6 (Homo sapiens, UniProt P10635)", "sequence (P10635 whole entry)": "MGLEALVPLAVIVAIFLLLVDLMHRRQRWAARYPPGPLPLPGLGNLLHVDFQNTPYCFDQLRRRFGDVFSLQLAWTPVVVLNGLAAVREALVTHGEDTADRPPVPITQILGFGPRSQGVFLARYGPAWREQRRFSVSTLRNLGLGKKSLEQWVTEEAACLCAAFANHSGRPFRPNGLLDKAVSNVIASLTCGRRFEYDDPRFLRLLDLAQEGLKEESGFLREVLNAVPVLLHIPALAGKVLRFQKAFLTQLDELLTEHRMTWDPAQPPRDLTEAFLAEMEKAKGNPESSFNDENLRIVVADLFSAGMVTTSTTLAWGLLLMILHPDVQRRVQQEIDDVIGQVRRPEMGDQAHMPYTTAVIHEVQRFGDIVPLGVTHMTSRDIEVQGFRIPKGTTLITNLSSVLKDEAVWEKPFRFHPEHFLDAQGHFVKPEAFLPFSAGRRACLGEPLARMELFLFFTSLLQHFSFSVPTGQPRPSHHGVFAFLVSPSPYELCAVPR"}}, "note": "Calls of active or inactive are those of the source.", "data": [{"smiles": "CC(C)(C)S(=O)(=O)c1cnc2c(-c3ccc(Cl)cc3)cnn2c1N", "values": [{"measurement": "EC50", "setting": "[1]", "result": "10.3 µM (active)"}, {"measurement": "EC50", "setting": "[2]", "result": "11.8 µM (active)"}]}, {"smiles": "Cc1ccccc1Cn1cc(NC(=O)c2noc(C(C)C)c2[N+](=O)[O-])cn1", "values": [{"measurement": "EC50", "setting": "[3]", "result": "> 120 µM (not active)"}, {"measurement": "EC50", "setting": "[4]", "result": "> 120 µM (not active)"}, {"measurement": "EC50", "setting": "[5]", "result": "> 120 µM (not active)"}, {"measurement": "IC50", "setting": "[6]", "result": "7.8 µM (active)"}]}, {"smiles": "COc1ccccc1CC(=O)O/N=C(\\N)Cc1cccc2ccccc12", "values": [{"measurement": "AC50", "setting": "[7]", "result": "inconclusive"}]}, {"smiles": "COc1ccc(-c2noc(CCC(=O)NCCCN3CCC(Cc4ccccc4)CC3)n2)cc1", "values": [{"measurement": "EC50", "setting": "[8]", "result": "18.5 µM (active)"}, {"measurement": "AC50", "setting": "[9]", "result": "20.7 µM (active)"}, {"measurement": "EC50", "setting": "[10]", "result": "> 150 µM (not active)"}, {"measurement": "EC50", "setting": "[11]", "result": "> 150 µM (not active)"}, {"measurement": "AC50", "setting": "[12]", "result": "4.03 µM (active)"}, {"measurement": "IC50", "setting": "[13]", "result": "> 20 µM (inactive)"}, {"measurement": "EC50", "setting": "[14]", "result": "23.2 µM (active)"}, {"measurement": "AC50", "setting": "[15]", "result": "30.4 µM (active)"}]}, {"smiles": "O=C(CCc1ccccc1)NNC(=O)C1CCCCC1", "values": [{"measurement": "AC50", "setting": "[7]", "result": "inconclusive"}]}, {"smiles": "COC(=O)c1ccccc1NC(=O)c1ccc(Cn2cc(Cl)cn2)o1", "values": [{"measurement": "AC50", "setting": "[7]", "result": "inconclusive"}, {"measurement": "AC50", "setting": "[16]", "result": "10 µM (inconclusive)"}]}, {"smiles": "CCc1ccc([C@@H]2CC=C(C(=O)O)[C@H](c3ccc(Cl)cc3)N2S(=O)(=O)c2ccc(C)cc2)cc1", "values": [{"measurement": "AC50", "setting": "[17]", "result": "7.7 µM (active)"}, {"measurement": "CC50", "setting": "[18]", "result": "11.6 µM (active)"}, {"measurement": "IC50", "setting": "[19]", "result": "40.3 µM (active)"}]}, {"smiles": "COC(=O)CC1=NN(c2ccccc2)C(=O)/C1=C\\c1ccc(OC)cc1", "values": [{"measurement": "IC50", "setting": "[19]", "result": "33.3 µM (active)"}]}, {"smiles": "CSc1ncc(Cl)c(C(=O)C(C#N)c2nc3c(C)cc(C)cc3c(=O)[nH]2)n1", "note": "(stereo not drawn)", "values": [{"measurement": "IC50", "setting": "[20]", "result": "84.5 µM (active)"}]}, {"smiles": "CN(C)CCCNc1oc(/C=C/c2ccccc2)nc1C#N", "values": [{"measurement": "IC50", "setting": "[20]", "result": "45.3 µM (active)"}]}, {"smiles": "CCCc1cc2c(cc1NC(=O)c1ccccc1Cl)OCO2", "values": [{"measurement": "AC50", "setting": "[7]", "result": "inconclusive"}, {"measurement": "AC50", "setting": "[21]", "result": "28.2 µM (inconclusive)"}]}, {"smiles": "COc1cccc(/C=C(/C#N)c2ccc(F)cc2)c1OCc1cccc(C(=O)O)c1", "values": [{"measurement": "IC50", "setting": "[20]", "result": "43.6 µM (active)"}]}, {"smiles": "CCOC(=O)CNC(=O)N1c2ccccc2Sc2ccccc21", "values": [{"measurement": "IC50", "setting": "[6]", "result": "1.95 µM (active)"}]}, {"smiles": "CCCn1c(-c2ccc[nH]c2=O)nc2cc(C)c(C)cc21", "values": [{"measurement": "IC50", "setting": "[20]", "result": "23.8 µM (active)"}]}, {"smiles": "O=C(O)c1ccccc1NS(=O)(=O)c1cccc(NS(=O)(=O)c2cc(Br)ccc2Br)c1", "values": [{"measurement": "IC50", "setting": "[19]", "result": "28.3 µM (active)"}]}, {"smiles": "COc1ccc(-c2[nH]c(-c3ccc4c(c3)OCO4)nc2-c2ccccc2)cc1", "values": [{"measurement": "EC50", "setting": "[1]", "result": "15.9 µM (active)"}, {"measurement": "EC50", "setting": "[2]", "result": "20.7 µM (active)"}]}, {"smiles": "COc1cc(/C=C/C(=O)O)cc(S(=O)(=O)NCc2ccc3c(c2)OCO3)c1OC", "values": [{"measurement": "IC50", "setting": "[20]", "result": "81.9 µM (active)"}]}]}
